Experimental data published in patent publication US7776859B2, “Hexahydroimidazopyrazin-3-one compounds useful as modulators of androgen receptor function” (Bristol-Myers Squibb Company, priority 2005, dated 2010).

Key:
AR = target: T1, AR (Rattus norvegicus, UniProt P15207)
T1 sequence (P15207 1-902): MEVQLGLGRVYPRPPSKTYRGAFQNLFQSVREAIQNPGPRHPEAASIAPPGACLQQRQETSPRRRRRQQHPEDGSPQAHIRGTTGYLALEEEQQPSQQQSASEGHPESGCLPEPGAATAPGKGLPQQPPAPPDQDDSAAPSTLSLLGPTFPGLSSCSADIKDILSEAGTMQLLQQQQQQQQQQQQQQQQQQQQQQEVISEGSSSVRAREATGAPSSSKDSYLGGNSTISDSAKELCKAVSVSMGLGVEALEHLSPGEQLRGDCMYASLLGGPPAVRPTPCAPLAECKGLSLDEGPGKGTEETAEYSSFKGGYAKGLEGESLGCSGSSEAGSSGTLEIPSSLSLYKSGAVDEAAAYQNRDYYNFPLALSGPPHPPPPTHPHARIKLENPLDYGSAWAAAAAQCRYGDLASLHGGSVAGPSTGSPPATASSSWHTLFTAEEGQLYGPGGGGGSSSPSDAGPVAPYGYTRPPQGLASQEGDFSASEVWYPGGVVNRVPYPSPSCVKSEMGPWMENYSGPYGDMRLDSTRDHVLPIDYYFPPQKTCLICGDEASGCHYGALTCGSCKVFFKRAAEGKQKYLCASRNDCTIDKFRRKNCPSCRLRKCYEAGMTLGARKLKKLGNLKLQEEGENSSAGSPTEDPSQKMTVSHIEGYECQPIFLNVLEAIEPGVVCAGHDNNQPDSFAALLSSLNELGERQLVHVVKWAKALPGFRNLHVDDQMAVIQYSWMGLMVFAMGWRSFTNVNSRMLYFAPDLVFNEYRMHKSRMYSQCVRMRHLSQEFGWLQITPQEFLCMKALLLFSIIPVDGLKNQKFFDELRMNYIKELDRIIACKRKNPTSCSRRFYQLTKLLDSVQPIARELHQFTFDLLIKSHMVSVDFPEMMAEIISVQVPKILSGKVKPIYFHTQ

[1] = system: wild type AR (MDA 453 cells); settings: read-out: Kd for [3H]-DHT; MDA 453 cells (wild type AR), Scatchard analysis of specific binding
Experimental: For the saturation analysis, the difference between the total binding and the non-specific binding, is defined as specific binding.
Two replicates are used for each sample. After 4 hours at 37° C., cells are washed, harvested, and counted as described above. […] The K1 values are determined by application of the Cheng-Prusoff equation to the IC50 values, where:
[formula] After correcting for non-specific binding, IC50 values are determined.

Molecule | potency relative to free T (AR; TP versus free T, organ weight increase) | EC50 (increase in organ weight, VP and SV) (AR; immature castrated rats, dosed for 3 days) [mg] | Kd [1] [pM]
CCC(=O)O[C@H]1CC[C@H]2[C@@H]3CCC4=CC(=O)CC[C@]4(C)[C@H]3CC[C@]12C [TP, testosterone propionate] | 10-30 fold | ~0.03 | –
tritiated dihydrotestosterone [[^3H]-DHT] | – | – | 700
